In PMC4971421, “Redox-Dependent Modulation of T-Type Ca^2+ Channels in Sensory Neurons Contributes to Acute Anti-Nociceptive Effect of Substance P” (Antioxidants & Redox Signaling, 2016):
Ends that are not written are not given here.

Tests used:
[1] = system: T-type Ca^2+ channels (LVA Ca^2+ current) in DRG neurons; experiment: LVA (T-type) Ca2+ current, whole-cell patch clamp, cultured small-diameter DRG neurons; type: cell-based, rat; details: 1 nM; mean ± SEM, n = 7; SEM
Experimental: (§1) DRG neurons from adult male Sprague–Dawley rats (170–180 g) were dissociated as previously described ([13], [29]) and cultured in DMEM supplemented with GlutaMax I, 10% fetal calf serum, penicillin (50 U/ml), and streptomycin (50 μg/ml) on glass coverslips that were coated with poly-D-lysine for 2–5 days in a humidified incubator (37°C, 5% CO2). No growth factors were added to the culture media. HEK 293 cells were cultured in the same DMEM media; cells were passaged every 2 days. Human NK1 receptor (GenBank accession No. AY462098) complementary DNA (cDNA) was from the Missouri Science and Technology cDNA Resource Center. WtCaV3.1 (GenBank accession No. AF027984), wtCaV3.2 (GenBank accession No. AF051946), CaV3.1Q172H, and CaV3.2H191Q were kindly provided by Dr E. Perez-Reyes (University of Virginia). HEK293 cells were transfected using Lipofectamine 2000 (Invitrogen) according to the manufacturer's instructions. ST101 was synthesized in house; Z944 was from Toronto Research Chemicals; PTX was from Enzo Life Science; and FluoZin-3AM was from Life Technologies. All other chemicals were from Sigma.
All recordings were made using Multiclamp 700B amplifier in combination with pCLAMP 10.4 software (Molecular Devices). Voltage-clamp recordings from DRG neurons were made using whole-cell patch clamp. The standard bath solution contained the following (in mM): 150 TEA-Cl; 2.5 CsCl; 2.5 CaCl2; 10 HEPES; 0.5 MgCl2; and 10 glucose (pH 7.4 adjusted with CsOH). The standard pipette solution contained the following (in mM): 110 CsCl; 3 MgCl2; 10 EGTA; 10 HEPES; 3 Mg-ATP; and 0.6 GTP (pH 7.4 adjusted with CsOH). The access resistance was typically within 4–8 MΩ. T-type calcium currents (LVA) were measured by 50 ms square voltage pulses to −40 mV from a holding potential of −90 mV. HVA currents were measured by 200 ms square voltage pulses to 0 mV from a holding potential of −90 mV.
where y is the current inhibition; A1 and A2 are the maximum and minimum effects, respectively; x is the S9SP concentration; and nH is the Hill coefficient.

[2] = system: high-voltage-activated (HVA) Ca^2+ currents in DRG neurons; experiment: HVA Ca2+ current, whole-cell patch clamp, DRG neurons; type: cell-based, rat; details: 1 nM
Experimental: as §1, with “ST101 was synthesized in house; Z944 was from Toronto Research Chemicals; PTX was from Enzo Life Science; and FluoZin-3AM was from Life Technologies. All other chemicals were from Sigma.” left out
All recordings were made using Multiclamp 700B amplifier in combination with pCLAMP 10.4 software (Molecular Devices). […] T-type calcium currents (LVA) were measured by 50 ms square voltage pulses to −40 mV from a holding potential of −90 mV. HVA currents were measured by 200 ms square voltage pulses to 0 mV from a holding potential of −90 mV.

[3] = system: small-diameter DRG neurons; experiment: DRG neuron excitability, perforated patch current clamp; type: cell-based, rat
Experimental: To knock down CaV3.2, DRGs were dissociated as described ([13]); immediately after dissociation, DRG pellets were resuspended in 900 μl DMEM (without GlutaMax I, serum or antibiotics), to which a mixture of 9 μl Lipofectamine RNAiMAX (Invitrogen) and either a mix of three anti-Cacna1h Stealth siRNAs (RSS350285, RSS350286, RSS350287; Life Technologies; 200 nM each) or a scrambled control oligo (Stealth RNAi™ siRNA Negative Control; Life Technologies; 200 nM) were added immediately before resuspension. Cultures were than plated in 50 μl droplets onto glass coverslips that were coated with poly-D-lysine and incubated for 5–6 h; the transfection media were then replaced with full DRG culture medium. Patch-clamp recordings were conducted 24–48 h after the transfection. The following primers were used for reverse transcription polymerase chain reaction (RT-PCR) analysis: • Cacna1h sense: 5′-[…]-3′ • Cacna1h AS: 5′-[…]-3′ • Gapdh sense: 5′-[…]-3′ • Gapdh AS: 5′-[…]-3′
Neuronal excitability was studied using the amphotericin B-perforated patch-clamp current technique ([13]). The extracellular solution contained the following (in mM): 160 NaCl, 2.5 KCl, 5 CaCl2, 1 MgCl2, 10 HEPES, and 8 Glucose. The intracellular solution contained the following (in mM): 145 KCl, 15 NaCl, 5 MgCl2, 10 HEPES, and 250 μg/ml Amphotericin B. The access resistance was typically within […]. APs were generated by an injection of 200 pA current for 1 s from a holding current of 0 pA. Rheobase was determined from a train of current steps from 0 to 400 pA delivered in 20-pA increments. Current clamp recordings were sampled at 12.5 kHz. Bridge balance adjustments were not applied, since only relative changes in Erest, AP number, and rheobase were investigated.

rat hind paw [4] = experiment: Nocifensive behavior after intraplantar hind-paw injection; type: in vivo; details: hind-paw injection 50 μl, 30 min
Experimental: Sprague–Dawley rats (body weight, 170–180 g) were grouped randomly and allowed to acclimate for at least 30 min in a transparent observation chamber before the experiment. Animals received a 50-μl intraplantar injection of ST101 (0.001–10 nmol/site), BK (10 nmol/site), RTG (1–10 nmol/site), Z944 (0.05–5 nmol/site), SP (0.5–5 nmol/site), or saline, respectively, into the right hind paw. For evaluation of the acute “spontaneous” pain, animals were video-recorded for 30 min after the injection and protective (“nocifensive”) behavior was analyzed as time spent licking, biting, lifting, and flinching the injected paw. The analyses were performed by an observer who was unaware of treatment allocations. In the pre-injection experiments, the right hind paw of the animal received a pre-injection of 50 μl Z944 (0.05–0.5 nmol/site), RTG (1–10 nmol/site), SP (0.5 nmol/site), Z944 (0.05–0.5 nmol/site)+RTG (1 nmol/site), or saline; 5 min later, on the same paw, the animal received a further 50-μl injection of BK (10 nmol/site) together with the pre-injection drug mix. Nocifensive behavior was analyzed as described earlier.

rat hind paw [5] = experiment: Hargreaves test, paw withdrawal latency to noxious heat; type: in vivo; details: hind-paw injection 0.001 nmol/site; 8 min after injection
Experimental: For measurement of thermal hyperalgesia, the change in the latency of hind-paw withdrawal in response to noxious heat was recorded using the Hargreaves’ plantar method (Ugo Basile) at 8 min after the hind-paw injection of drugs; the heat source was set to 25% of the maximal intensity.

rat hind paw [6] = experiment: von Frey test; type: in vivo; details: 50 μl; 0.001 nmol/site; filaments 2–15 g; 8 min after injection
Experimental: (§2) For measurement of sensitivity to gentle touch and mechanical hyperalgesia, two methods were used. (i) Cotton swab test was performed as previously described ([53]). Briefly, rats were allowed to acclimate in a cage with a wire mesh bottom for at least 30 min and then were manually probed with a “cotton swab” pulled from a Q-tip (to approximately three times the original size). A swab was applied in a sweeping motion underneath the rats’ paws, and the withdrawal responses were recorded. Five sweeps were applied in each test, with at least 10 s between each sweep; withdrawal score was calculated as a percentage of positive responses. (ii) The von Frey test was performed using a calibrated range of filaments with different bending forces (2, 4, 6, 8, 10, and 15 g; Stoelting Co.). A single filament was applied perpendicularly to the plantar surface of the hind paw for five times, with an interval of 5 s, and it was scored for withdrawal responses. Each force was probed five times, the number of withdrawals out of five trials was counted, and the percentage of withdrawal responses was calculated. Both types of assays were performed 8 min after the hind-paw drug injection.

rat hind paw [7] = experiment: Cotton swab test (gentle touch); type: in vivo; details: 50 μl; 0.001 nmol/site
Experimental: as §2

[8] = system: delayed-rectifier K^+ current in DRG neurons; experiment: Delayed-rectifier K+ current in DRG neurons; type: cell-based, rat; details: 1 nM
[9] = system: voltage-gated Na^+ current in DRG neurons; experiment: Voltage-gated Na+ current in DRG neurons; type: cell-based, rat; details: 1 nM
CaV3 = details: cited from earlier work
Experimental: The T-type Ca^2+ current is an important regulator of sensory neuron excitability ([10], [17], [18], [20], [23], [24], [51], [71], [75]). […] Z944 (1 μM) inhibited LVA curren ...

Compound | enhancement of peak LVA current [1] | effect on HVA current [2] | resting membrane potential (Erest) [3] | action potential (AP) firing ([3]; 200 pA for 1 s) | small DRG neuron excitability ([3]; perforated current clamp) | effect on Erest, AP number, or rheobase in Cacna1h knocked-down neurons ([3]; siRNA against Cacna1h) | nocifensive behavior (rat hind paw [4]; 0.001–10 nmol/site) | paw withdrawal latency on radiant heat exposure (rat hind paw [5]) | response to von Frey filament stimulation (rat hind paw [6]) | sensitivity to light touch, cotton swab assay (rat hind paw [7]) | effect on delayed-rectifier K^+ current [8] | effect on voltage-gated Na^+ current [9] | EC50, CaV3 potentiation (CaV3) | AP number ([3]; 250 nM) | Erest ([3]; 250 nM) | rheobase ([3]; 250 nM) | nocifensive behavior (rat hind paw [4]; 10 nmol/site)
O=C1N=C2C=CC=CN2C12Cc1ccccc1C2 [ST101, spiro[imidazo[1,2-a]pyridine-3,2-indan]-2(3H)-one] | 50.6% ± 14.1% | without an effect | depolarized | significantly increased | increased | neither Z994 nor ST101 produced any significant effect | moderate but significant protective effect | significantly reduced | greatly increased response rates | ineffective | no effect | no effect | sub-nanomolar range |  |  |  | 
RPPGFSPFR [BK, bradykinin, pro-algesic signaling peptide] |  |  |  |  |  |  |  |  |  |  |  |  |  | increased | depolarized | significantly reduced | strong nocifensive response
